From US20240327406A1, “POTASSIUM CHANNEL MODULATORS” (Autifony Therapeutics Limited, priority 2021, published 2024)

Tests used:
[1] = In vitro metabolic stability, human liver microsomes; assay type: in vitro ADME; conditions: CLint expressed as mL/min/g liver
Procedure: The objective of this study was to determine metabolic stability of test items in rat and human liver microsomes. Verapamil and dextromethorphan were used as positive controls for microsomal incubation.
Incubation medium was prepared by combining 11.2 mL of potassium phosphate monobasic and 38.8 mL of potassium phosphate dibasic, diluted to 1 L with water. Cryopreserved microsomes were thawed and kept on ice until use. Microsomes were then diluted in incubation to a protein concentration of 0.56 mg/mL. […]
NADPH regenerating system solution was prepared by dissolving 1.7 mg of NADP, 7.8 mg of G6P and 6 units of G6P-Dehydrogenase in 1 mL of 2% sodium bicarbonate solution (prepared by dissolving 20 g of NaHCO3 in 1 L of water).
Test compounds were separately dissolved in DMF to obtain 10 mM stock solutions that were further diluted in water/acetonitrile 50/50 (v/v) to obtain the corresponding 50 μM working solutions. Verapamil and dextromethorphan were dissolved in DMF in order to obtain a 10 mM verapamil solution and 10 mM dextromethorphan solution. These solutions were then diluted in the incubation medium in order to obtain a 50 μM verapamil working solution and a 50 μM dextromethorphan working solution.
800 μL-aliquots of NADPH regenerating system were pre-warmed at 37° C. for 5 minutes. 5 μL of 50 µM test compounds, verapamil or dextromethorphan were added to 445 μL of the 0.56 mg/mL microsomes solution and the incubation mixture was pre-warmed in a 96 deep well 2 mL plate (incubation plate) at 37° C. for 5 minutes. The incubation reactions were initiated by adding 50 μL of pre-warmed NADPH regenerating system to the incubation mixtures. 50 μL aliquots were taken from incubation mixtures at: 0, 3, 6, 9, 15, and 30 minutes and the reactions were stopped by adding 100 μL of aceronitrile with the corresponding internal standard. Samples were then diluted with 120 μL of water (final organic solvent percentage at 37%) and centrifuged at 3000 rpm for 10 minutes, prior the LC-MS/MS analysis.
Metabolic stability was calculated from the peak area ratio of the remaining test compound with internal standard versus time. The intrinsic clearance (CLint) was determined from the first order elimination constant k (min^−1) (obtained from GraphPad by plotting the natural logarithm of the peak area ratio of the remaining test item with internal standard versus time), using the actual volume of the incubation V (mL), the amount of hepatocytes in the incubation M (million cells) and the hepatocellularity number per a liver Hn (120 for human).

[2] = Determination of blood and brain tissue binding (equilibrium dialysis); assay type: in vitro ADME, Sprague Dawley rat; conditions: Sprague Dawley, 5 h at 37° C.; for fraction unbound at 5 h, 5 micromolar: 1:2 (w/v) in artificial CSF, rat brain homogenate, read-out: % FU Brain; for fraction unbound at 5 h, 0.5 micromolar: whole blood diluted 1:1 (v/v) with isotonic phosphate buffer, rat whole blood, read-out: % FU Blood
Procedure: Sprague Dawley rat whole blood, collected on the week of the experiment using K3-EDTA as an anti-coagulant, is diluted with isotonic phosphate buffer 1:1 (v/v). Sprague Dawley rat whole brain, stored frozen at −20° C., is thawed and homogenised in artificial cerebrospinal fluid (CSF) 1:2 (w/v).
An appropriate amount of test compound is dissolved in DMSO to give a 10 millimolar solution. Further dilutions, to obtain a 166.7 micromolar working solution are then prepared using 50% acetonitrile in MilliQ water. This working solution is used to spike the blood to obtain a final concentration of 0.5 micromolar in whole blood. Similarly, the working solution is used to spike brain samples to obtain a final concentration of 5 micromolar in whole brain. From these spiked blood and brain preparations, control samples (n=3), are immediately extracted and used to calculate the initial recovery of the test items.
150 microL of compound-free buffer (isotonic phosphate buffer for blood or artificial CSF buffer for brain) is dispensed in one half-well and 150 microL of spiked matrix (blood or brain) is loaded in the other half-well, with the two halves separated by a semi-permeable membrane. After an equilibration period of 5 h at 37° C., 50 microL of dialysed matrix (blood or brain) is added to 50 microL of corresponding compound-free buffer, and vice-versa for buffer, such that the volume of buffer to matrix (blood or brain) remains the same. Samples are then extracted by protein precipitation with 300 microL of acetonitrile containing rolipram (control for positive ionization mode) or diclofenac (control for negative ionization mode) as internal standards and centrifuged for 10 min at 3000 rpm. Supernatants are collected (100 microL), diluted with 27% AcN in MilliQ water (200 microL) and then injected into an HPLC-MS/MS or UPLC-MS/MS system to determine the concentration of test compound present.
Blood and brain tissue binding are then determined using the following formulas:
where Afu=apparent fraction unbound; Buffer=analyte/internal standard ratio determined in the buffer compartment; Blood=analyte/internal standard ratio determined in the blood compartment; Brain=analyte/internal standard ratio determined in the brain compartment.
where: fucr=Fraction unbound corrected; D=matrix dilution factor (D=2 for blood and D=3 for brain). then: […]

[3] = Determination of in vivo pharmacokinetic parameters (blood and brain concentrations); conditions: male, rat
Procedure: Adult male rats (Charles River, Italy) are dosed with test compound orally at 1 mg/kg (5 ml/kg, in 5% v/v DMSO, 0.5% w/v HPMC in water) and intravenously at 0.5 mg/kg (2 ml/kg, in 5% v/v DMSO 40% w/v PEG400 in saline). After oral administration, blood samples are collected under deep Isofluorane anesthesia from the portal vein and heart of each rat (1 rat per time point). After intravenous administration, serial blood samples are collected from the lateral tail vein of each rat. Blood and brain samples are collected at a single timepoint of 0.5 h after dose administration for these animals. In all cases, blood samples are collected into potassium EDTA tubes.
A further group of rats (n=1 per test compound) receive a single intravenous administration of the PgP transport inhibitor, Elacridar (3 mg/kg) shortly before the oral administration of the test compound at 1 mg/kg, as above.
Blood and brain samples can be assayed for test compound concentration using a method based on protein precipitation with acetonitrile followed by HPLC/MS-MS analysis with an optimized analytical method.
The concentrations of test compound in blood (expressed as ng/ml) and brain (expressed as ng/g) at the different time points following either oral or intravenous dosing are analysed using a non-compartmental pharmacokinetic model using WinNonLin Professional version 4.1. The following parameters are derived:
Intravenous dosing: Maximum concentration over time (Cmax), integrated concentration over time (AUC), clearance (Clb), volume of distribution (Vss), half-life (t1/2) and Brain/Heart Blood conc @0.5 hr.
Oral dosing: Cmax, time of maximum concentration (Tmax), AUC, bioavailability (F %), fraction absorbed (Fa %), blood to brain ratio (AUC B/B), and Fold-change in AUC B/B in the presence of Elacridar.

SMILES: Cc1ccc(Oc2ncc(-n3c(=O)[nH]c4cccnc43)cn2)cc1OC(F)(F)F [Example 32, 3-[2-[4-methyl-3-(trifluoromethoxy)phenoxy]pyrimidin-5-yl]-1H-imidazo[4,5-b]pyridin-2-one]
- Cli human [1]: 0.8 mL/min/g
- fraction unbound at 5 h, 5 micromolar [2]: 0.006
- fraction unbound at 5 h, 0.5 micromolar [2]: 0.01

SMILES: Cc1ccc(Oc2ccc(-n3c(=O)[nH]c4cccnc43)cn2)cc1OC(F)(F)F [Example 4, 3-[6-[4-methyl-3-(trifluoromethoxy)phenoxy]-3-pyridyl]-1H-imidazo[4,5-b]pyridin-2-one]
- Cli human [1]: 0.7 mL/min/g
- fraction unbound at 5 h, 5 micromolar [2]: 0.003
- fraction unbound at 5 h, 0.5 micromolar [2]: 0.002

SMILES: O=c1[nH]c2cccnc2n1-c1cnc(Oc2cccc(OC(F)(F)F)c2)nc1 [Example 17, 3-[2-[3-(trifluoromethoxy)phenoxy]pyrimidin-5-yl]-1H-imidazo[4,5-b]pyridin-2-one]
- Cli human [1]: <0.5 mL/min/g
- fraction unbound at 5 h, 5 micromolar [2]: 0.016
- fraction unbound at 5 h, 0.5 micromolar [2]: 0.016
- Kp ([3]; brain and blood, oral dosing 1 mg/kg, read-out: AUC B/B (brain/blood) ratio): 0.45
- Kp at 0.5 h ([3]; brain and heart blood, intravenous, 0.5 mg/kg, 0.5 h after dose administration, read-out: Brain/Heart Blood conc @0.5 hr): 0.76
